This note sets out measurements from publication PMC9268515, “UGT1A1 and UGT1A9 Are Responsible for Phase II Metabolism of Tectorigenin and Irigenin In Vitro” (Molecules, 2022).

Series [1] is described as follows: Stability experiment under different storage conditions. Format: physicochemical. The note with it: autosampler 12 h at 4 °C. The procedure:
In the stability experiment, we evaluated the stability of tectorigenin and irigenin, as well as their metabolites, under different conditions. […] Metabolites (M, M1, and M2) were stable in the inactivated metabolic system for 2 h (held constant at approximately 25 °C) and after storage for 7 days (−80 °C), as well as in the pretreated samples placed in the autosampler for 12 h at 4 °C.

The target in a further series is T1, UGT1A1 (Homo sapiens, UniProt P22309).
T1 construct: purchased BD Biosciences (Woburn, MA, USA)
T1 sequence (P22309 26-533): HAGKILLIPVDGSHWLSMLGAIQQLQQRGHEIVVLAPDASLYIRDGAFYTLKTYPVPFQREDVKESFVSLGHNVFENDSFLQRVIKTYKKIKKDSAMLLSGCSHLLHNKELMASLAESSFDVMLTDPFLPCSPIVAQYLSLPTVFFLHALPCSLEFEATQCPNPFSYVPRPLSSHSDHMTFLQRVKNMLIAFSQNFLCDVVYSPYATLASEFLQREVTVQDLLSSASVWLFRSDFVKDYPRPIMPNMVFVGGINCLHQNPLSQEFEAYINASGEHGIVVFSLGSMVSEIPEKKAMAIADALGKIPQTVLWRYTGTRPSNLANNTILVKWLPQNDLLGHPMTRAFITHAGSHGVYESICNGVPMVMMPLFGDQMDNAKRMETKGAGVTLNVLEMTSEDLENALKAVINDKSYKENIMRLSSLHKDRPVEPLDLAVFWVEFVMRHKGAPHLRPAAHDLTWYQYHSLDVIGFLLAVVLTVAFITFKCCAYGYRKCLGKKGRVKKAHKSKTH
As to the kind of experiment: Recombinant UGT reaction screening and enzyme kinetics, UGT1A1. Format: in vitro ADME. The note with it: recombinant UGT1A1 screening. The procedure:
(§1) UGT reaction screening of tectorigenin and irigenin was conducted using nine commercially available human UGTs (UGT1A1/1A3/1A4/1A6/1A9/2B4/2B7/2B15/2B17). Furthermore, we studied the enzymatic kinetic characteristics of tectorigenin and irigenin using UGT1A1 and UGT1A9. Six concentrations of tectorigenin and irigenin (1, 3, 10, 30, 100, and 300 μM) were incubated in triplicate in order to obtain the enzyme kinetic characteristics of tectorigenin and irigenin glucuronide.
(§2) For both HLMs and UGTs, metabolic kinetic analysis was performed by fitting the data to the Michaelis-Menten model. The Km and Vmax of enzymes were calculated as follows:(3) V=Vmax×[S]/Km+[S], where [S] is the substrate concentration. All results were shown as the mean ± standard error (SE). Differences among different groups were compared using one-way analysis of variance. A p-value < 0.05 was considered statistically significant.

The target of the next series is T2, UGT2B17 (Homo sapiens, UniProt O75795).
T2 construct: purchased BD Biosciences (Woburn, MA, USA)
T2 sequence (O75795 24-530): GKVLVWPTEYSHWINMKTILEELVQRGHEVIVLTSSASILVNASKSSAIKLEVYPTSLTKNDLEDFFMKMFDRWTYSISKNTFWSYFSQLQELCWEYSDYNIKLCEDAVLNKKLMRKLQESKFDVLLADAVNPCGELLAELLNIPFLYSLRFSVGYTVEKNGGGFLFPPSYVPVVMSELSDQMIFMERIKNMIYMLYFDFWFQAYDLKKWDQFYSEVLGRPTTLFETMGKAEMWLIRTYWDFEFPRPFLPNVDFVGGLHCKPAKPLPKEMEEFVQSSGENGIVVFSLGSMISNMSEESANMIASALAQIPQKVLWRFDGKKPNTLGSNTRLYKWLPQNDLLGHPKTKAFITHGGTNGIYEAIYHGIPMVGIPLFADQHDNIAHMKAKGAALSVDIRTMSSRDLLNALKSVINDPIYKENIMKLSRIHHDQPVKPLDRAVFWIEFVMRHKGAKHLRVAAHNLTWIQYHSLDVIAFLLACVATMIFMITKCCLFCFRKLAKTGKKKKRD
As to the kind of experiment: Recombinant UGT reaction screening, UGT2B17. The format is in vitro ADME. The procedure: as §1

The target of another series is T3, UGT2B7 (Homo sapiens, UniProt P16662).
T3 construct: purchased BD Biosciences (Woburn, MA, USA)
T3 sequence (P16662 24-529): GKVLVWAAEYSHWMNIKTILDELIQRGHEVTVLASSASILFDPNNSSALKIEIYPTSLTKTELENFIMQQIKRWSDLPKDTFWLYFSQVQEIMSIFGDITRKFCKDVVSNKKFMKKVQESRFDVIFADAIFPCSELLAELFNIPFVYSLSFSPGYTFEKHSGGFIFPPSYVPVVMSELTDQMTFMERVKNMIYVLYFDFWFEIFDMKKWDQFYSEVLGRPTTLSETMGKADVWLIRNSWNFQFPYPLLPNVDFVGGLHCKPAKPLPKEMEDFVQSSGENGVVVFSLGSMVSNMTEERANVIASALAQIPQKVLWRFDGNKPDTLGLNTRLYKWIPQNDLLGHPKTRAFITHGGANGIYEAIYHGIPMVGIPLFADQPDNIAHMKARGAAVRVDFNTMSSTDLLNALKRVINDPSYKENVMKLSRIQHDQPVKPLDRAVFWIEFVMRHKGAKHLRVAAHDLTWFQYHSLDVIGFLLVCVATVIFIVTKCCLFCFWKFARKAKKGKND
As to the kind of experiment: Recombinant UGT reaction screening, UGT2B7. Format: in vitro ADME. The procedure: as §1

Series [2] deals with pooled human liver microsomes (HLMs). The series is described as follows: Glucuronidation kinetics of tectorigenin and irigenin in HLMs. Format: in vitro ADME. Conditions: tectorigenin glucuronidation in HLMs, metabolite M. As to the method: To obtain suitable incubation conditions, we first evaluated the linearity of metabolite formation at different times (10–60 min), the UDPGA concentrations (0.5–5 mM), and the microsome protein concentrations in HLMs (0.2–2 mg/mL). The final incubation medium used in the experiment contained MgCl2 (10 mM), microsomes (0.5 mg/mL), 1,4-lactone monohydrate (5 mM), alamethicin ([…]), UDPGA (1 mM), and different concentrations of tectorigenin or irigenin (1–300 μM) in Tris-HCl buffer (50 mM, pH 7.4). The mixture was incubated at 37 °C for 30 min; then, the reaction was stopped by adding ice-cold methanol. After the mixtures were centrifuged (17,000 rpm, 10 min), and the supernatant was analyzed by HPLC. Michaelis–Menten parameters (Vmax and Km) were determined on the basis of the nonlinear regression of the plot of the substrate concentration vs. rate of metabolite formation.
as §2

Usually Km stands for the concentration of substrate that gives half-maximal velocity. On to `COc1c(O)cc2occ(-c3ccc(O)cc3)c(=O)c2c1O` [Tectorigenin, 5,7,4′-trihydroxyl-6-methoxyl isoflavone], for which the “Stability in pretreated samples in the autosampler” value in series [1] is “stable”. For the same compound, the “RE and RSD values in pretreated samples in the autosampler” value in series [1] (printed as below ±5%) is reported as < 5%. The “Activity in glucuronidation of tectorigenin” value on UGT1A1 is given as “highest activity”; on UGT2B17 it was “none”; at UGT2B7 it was “some activity”. Also, the “Vmax for M formation” value in series [2] is 5.87 ± 0.25 nmol/min/mg. Moreover, in series [2] (read-out: Km for M formation), the Km turned out to be 32.8 ± 4.79 µM.
